Source: PMC3146558 (Cellular and molecular neurobiology, 2011)
Structures can show the parent of a compound that is named as a salt. Where two headings read alike, the source gives them in different places.

Tests used:
[1] = test system: morphine induced cAMP overshoot; assay: Inhibition of morphine-induced cAMP overshoot, qHTS of LOPAC library; assay type: cell-based
HEK-MOR cells = assay: Assay performance in 1536-well plate format; assay type: cell-based; conditions: mean ± SD from 288 wells

| SMILES | IC50 ([1]; 18 h, read-out: Potency) | further results |
| --- | --- | --- |
| CCCCCCCCCCCCCCCCCC(=O)NCC(COP(=O)([O-])OCC[N+](C)(C)C)OCC (racemic) [rac-2-Ethoxy-3-octadecanamido-1-propylphosphocholine] | 18400 nM |  |
| CC1(C(=O)O)C2CCC(O2)C1(C)C(=O)O (centres unmarked) [Cantharidic Acid] | 14600 nM |  |
| C[C@@]12C(=O)OC(=O)[C@]1(C)[C@H]1CC[C@@H]2O1 [Cantharidin] | 13000 nM |  |
| C=CCN1CC[C@]23CCCC[C@H]2[C@H]1Cc1ccc(O)cc13 [Levallorphan tartrate] | 330 nM | IC50 ([1]; read-out: IC50): 320 nM |
| CN1CC[C@]23c4c5ccc(O)c4O[C@H]2[C@@H](O)C=C[C@H]3[C@H]1C5 [Morphine, morphine sulfate pentahydrate] |  | ratio (665nm/620nm), morphine treatment (HEK-MOR cells; NKH 477 10 nM): 1.63 ± 0.13; ratio (665nm/620nm), morphine treatment (HEK-MOR cells; NKH 477 25 nM): 1.08 ± 0.05; ratio (665nm/620nm), morphine treatment (HEK-MOR cells; NKH 477 50 nM): 0.88 ± 0.04 |
| C=CCN1CC[C@]23c4c5ccc(O)c4O[C@H]2/C(=N/NC(=O)c2ccccc2)CC[C@@]3(O)[C@H]1C5 [Naloxone benzoylhydrazone] | 410 nM |  |
| O=C1CC[C@@]2(O)[C@H]3Cc4ccc(O)c5c4[C@@]2(CCN3CC2CC2)[C@H]1O5 [Naltrexone hydrochloride] | 120 nM | IC50 ([1]; read-out: IC50): 110 nM |
| Oc1ccc2c3c1O[C@H]1c4oc5ccccc5c4C[C@@]4(O)[C@@H](C2)N(CC2CC2)CC[C@]314 [Naltriben methanesulfonate] | 2310 nM |  |
| Oc1ccc2c3c1O[C@H]1c4[nH]c5ccccc5c4C[C@@]4(O)[C@@H](C2)N(CC2CC2)CC[C@]314 [Naltrindole hydrochloride] | 820 nM | IC50 ([1]; read-out: IC50): 810 nM |
| C=C1C(=O)O[C@H]2[C@H]1CC/C(C)=C/CC[C@@]1(C)O[C@@H]21 [Parthenolide] | 16400 nM |  |
| CCC(=O)c1ccc2c(c1)N(CCCN(C)C)c1ccccc1S2 [Propionylpromazine hydrochloride] | 16400 nM |  |
| CCCN(CCC)CCc1cccc2c1CC(=O)N2 [Ropinirole hydrochloride] | 18400 nM |  |
